pIC50: −log10 of the molar value. Read-outs that look alike come from different tables or passages of the source.
How the values were obtained:
[1] = tested on: NRK-49F cells; assay: Collagen synthesis inhibition test; assay type: cell-based; conditions: 25 ng/mL TGF-β added, cultured about 44 hr, 3H-labeled proline taken into collagen, no TGF-β = 100% inhibition, no test compound = 0% inhibition, read-out: Collagen synthesis inhibiting activity IC50
Protocol: Collagen Synthesis Inhibition Test
Collagen synthesis inhibiting activity was evaluated by the following assay.
NRK-49F cells (Dainippon Pharmaceutical) are seeded into a 96-well plate. After becoming confluent, the medium is changed to a serum-free Dulbecco's modified MEM medium (Invitrogen) containing 5 μg/mL insulin, 5 μg/mL transferin, and 5 ng/mL selenious acid. One day later, the medium is changed to a serum-free Dulbecco's modified MEM medium (80 μl) containing 10 ng/mL IGF-II (Sigma) and 50 μg/mL L-ascorbic acid (Sigma), and a ten times concentration of a test compound (10 μl) is added thereto. Thirty minutes later, 25 ng/mL TGF-β (R&D System: 10 μL) is added to the medium, and the cells are cultured for about 44 hr. Twenty four hours before the termination of the culturing, ^3H-labeled proline (Amersham: 1 μCi) is added so as to be taken into collagen in the cells. When the culturing is terminated, 30% trichloroacetic acid (50 μL) is added to the medium. After leaving for 20 min, proteins are precipitated by centrifugation at 3000 rpm for 10 min. The supernatant is removed, and the residue is twice washed with 200 μL of a washing solution (ethanol:ether=3:1). The precipitate is air-dried, and the washing solution is sufficiently removed. After addition of 60 μL of a collagenase solution (2 mg/mL collagenase VII (Sigma), 50 mM Tris-HCl (pH 7.4), 5 mM CaCl2), the resulting mixture is treated at 37° C. for 2 hr to decompose collagen. Then, 90 μL of 15% trichloroacetic acid and 5% tannic acid are added thereto. The resulting mixture is left for 20 min and then centrifuged at 3000 rpm for 10 min. The supernatant (50 μL) is transferred to LumaPlate (PerkinElmer Lifescience) and is air-dried. Then, the amount of ^3H is measured by a Top Count.

SMILES	pIC50 ([1]; Rattus norvegicus)	melting point [°C]	pIC50 [1]
Cc1cccc(-c2[nH]c(C(C)C)nc2-c2cccc(-c3ccc(S(C)(=O)=O)cc3)c2)n1 [Example 17, 2-{2-Isopropyl-4-[4′-(methylsulfonyl)-1,1′-biphenyl-3-yl]-1H-imidazol-5-yl}-6-methylpyridine]	6.46	104 to 106	–
Cc1cccc(-c2[nH]c(C(C)C)nc2-c2cccc(-c3ccc(C(=O)NN4CCN(C)CC4)cc3)c2)n1 [Example 48, N-(4-Methylpiperazin-1-yl)-4-{3-[2-isopropyl-5-(6-methylpyridin-2-yl)-1H-imidazol-4-yl]phenyl}benzamide]	5.83	–	–
Cc1cccc(-c2[nH]c(C(C)C)nc2-c2ccc(F)c(-c3ccc(C(=O)NC4CCOCC4)cc3)c2)n1 [Example 65, N-(Tetrahydropyran-4-yl)-4-{2-fluoro-5-[2-isopropyl-5-(6-methylpyridin-2-yl)-1H-imidazol-4-yl]phenyl}benzamide]	6.28	130 to 132	–
Cc1cccc(-c2nc(C(C)C)[nH]c2-c2ccc(F)c(-c3ccc(CN4CCOCC4)cc3)c2)n1 [Example 109]	–	–	6.89
Cc1cccc(-c2nc(C(C)C)[nH]c2-c2ccc(F)c(-c3cnn(C)c3)c2)n1 [Example 110, 2-{5-[4-Fluoro-3-(1-methyl-1H-pyrazol-4-yl)phenyl]-2-isopropyl-1H-imidazol-4-yl}-6-methylpyridine]	7.30	77 to 97	–
Cc1cccc(-c2cn(C(C)C)nc2-c2ccc(F)c(-c3cn[nH]c3)c2)n1 [Example 112, 2-{5-[4-Fluoro-3-(1H-pyrazol-4-yl)phenyl]-2-isopropyl-1H-pyrazol-4-yl}-6-methylpyridine]	–	–	7.52
Cc1cccc(-c2[nH]c(C(C)C)nc2-c2ccc(F)c(-c3ccc(OCCN4CCCCC4)cc3)c2)n1 [Example 117, 2-{4-[6-Fluoro-4′-(2-piperidin-1-ylethoxy)-1,1′-biphenyl-3-yl]-2-isopropyl-1H-imidazol-5-yl}-6-methylpyridine]	5.93	–	–
Cc1cccc(-c2nc[nH]c2-c2ccc(F)c(-c3cnn(C)c3)c2)n1 [Example 121, 2-{5-[4-Fluoro-3-(1-methyl-1H-pyrazol-4-yl)phenyl]-1H-imidazol-4-yl}-6-methylpyridine]	8.00	205	–
Cc1cccc(-c2[nH]c(C(C)C)nc2-c2ccc(F)c(-c3ccc4c(c3)CCS4(=O)=O)c2)n1 [Example 125, 2-{4-[3-(1,1-Dioxido-2,3-dihydro-1-benzothien-5-yl)-4-fluorophenyl]-2-isopropyl-1H-imidazol-5-yl}-6-methylpyridine]	6.64	119 to 123	–
Cc1cccc(-c2[nH]c(C(C)C)nc2-c2ccc(F)c(-c3ccc(S(N)(=O)=O)cc3)c2)n1 [Example 127, 2′-Fluoro-5′-[2-isopropyl-5-(6-methylpyridin-2-yl)-1H-imidazol-4-yl]-1,1′-biphenyl-4-sulfonamide]	6.10	245 to 246	–
Cc1cccc(-c2[nH]c(C(C)C)nc2-c2ccc(F)c(-c3cn(C)cn3)c2)n1 [Example 130, 2-{4-[4-Fluoro-3-(1-methyl-1H-imidazol-4-yl)phenyl]-2-isopropyl-1H-imidazol-5-yl}-6-methylpyridine]	6.74	100 to 103	–
Cc1cccc(-c2[nH]c(C(C)C)nc2-c2ccc(F)c(-c3c[nH]cn3)c2)n1 [Example 137, 2-{4-[4-Fluoro-3-(1H-imidazol-4-yl)phenyl]-2-isopropyl-1H-imidazol-5-yl}-6-methylpyridine]	7.15	268 to 270	–
Cc1cccc(-c2n[nH]cc2-c2ccc(F)c(-c3ccc4c(c3)CCS4(=O)=O)c2)n1 [Example 146, 2-{4-[3-(1,1-Dioxido-2,3-dihydro-1-benzothien-5-yl)-4-fluorophenyl]-1H-pyrazol-3-yl}-6-methylpyridine]	7.10	107 to 109	–
CNS(=O)(=O)c1ccc(-c2cc(-c3c[nH]nc3-c3cccc(C)n3)ccc2F)cc1 [Example 156, 2′-Fluoro-N-methyl-5′-[3-(6-methylpyridin-2-yl)-1H-pyrazol-4-yl]-1,1′-biphenyl-4-sulfonamide]	7.00	–	–
Cc1cccc(-c2n[nH]cc2-c2ccc(F)c(-c3ccc(C(C)(C)O)cn3)c2)n1 [Example 160, 2-(6-{2-Fluoro-5-[3-(6-methylpyridin-2-yl)-1H-pyrazol-4-yl]phenyl}pyridin-3-yl)propan-2-ol]	6.72	169 to 172	–
Cc1cccc(-c2n[nH]cc2-c2ccc(F)c(-c3c[nH]c(C(C)(C)O)n3)c2)n1 [Example 161, 2-(4-{2-Fluoro-5-[3-(6-methylpyridin-2-yl)-1H-pyrazol-4-yl]phenyl}-1H-imidazol-2-yl)propan-2-ol]	7.00	135 to 137	–
Cc1cccc(-c2n[nH]cc2-c2ccc(F)c(-c3cnn(CCO)c3)c2)n1 [Example 162, 2-(4-{2-Fluoro-5-[3-(6-methylpyridin-2-yl)-1H-pyrazol-4-yl]phenyl}-1H-pyrazol-1-yl)ethanol]	7.52	–	–
Cc1cccc(-c2n[nH]cc2-c2ccc(F)c(-c3cn(C)cn3)c2)n1 [Example 172, 2-{4-[4-Fluoro-3-(1-methyl-1H-imidazol-4-yl)phenyl]-1H-pyrazol-3-yl}-6-methylpyridine]	7.70	168 to 169	–
Cc1cccc(-c2n[nH]cc2-c2ccc(F)c(-c3cn(CCO)cn3)c2)n1 [Example 177, 2-(4-{2-Fluoro-5-[3-(6-methylpyridin-2-yl)-1H-pyrazol-4-yl]phenyl}-1H-imidazol-1-yl)ethanol]	7.30	248	–
Cc1cccc(-c2n[nH]cc2-c2ccc(F)c(-c3ccc(N4CCOCC4)cn3)c2)n1 [Example 179, 4-(6-{2-Fluoro-5-[3-(6-methylpyridin-2-yl)-1H-pyrazol-4-yl]phenyl}pyridin-3-yl)morpholine]	7.40	88 to 90	–
Cc1cccc(-c2n[nH]cc2-c2ccc(F)c(-c3ccc(CN4CCOCC4)cn3)c2)n1 [Example 181, 4-[(6-{2-Fluoro-5-[3-(6-methylpyridin-2-yl)-1H-pyrazol-4-yl]phenyl}pyridin-3-yl)methyl]morpholine]	7.70	68 to 70	–
Cc1cccc(-c2n[nH]cc2-c2ccc(F)c(-c3cc[nH]c3)c2)n1 [Example 189, 2-{4-[4-Fluoro-3-(1H-pyrrol-3-yl)phenyl]-1H-pyrazol-3-yl}-6-methylpyridine]	7.70	162 to 164	–
Cc1cccc(-c2n[nH]cc2-c2ccc(F)c(-c3c[nH]c(CCN4CCOCC4)n3)c2)n1 [Example 213, 4-[2-(4-{2-Fluoro-5-[3-(6-methylpyridin-2-yl)-1H-pyrazol-4-yl]phenyl}-1H-imidazol-2-yl)ethyl]morpholine]	–	239 to 240	–
Cc1cccc(-c2nc(N)sc2-c2ccc(F)c(-c3ccc(S(C)(=O)=O)cc3)c2)n1 [Example 215, 5-[6-Fluoro-4′-(methylsulfonyl)-1,1′-biphenyl-3-yl]-4-(6-methylpyridin-2-yl)-1,3-thiazol-2-amine]	–	202 to 204	–
Cc1cccc(-c2nc(N)sc2-c2ccc(F)c(-c3ccc(S(N)(=O)=O)cc3)c2)n1 [Example 216, 5′-[2-Amino-4-(6-methylpyridin-2-yl)-1,3-thiazol-5-yl]-2′-fluoro-1,1′-biphenyl-4-sulfonamide]	–	190 to 192	–

Reference: patent US20070275968A1, “Substituted Biphenyl Derivative” (priority 2004, published 2007)
